“And” between values parts separate entries of the source, which are not always exact repeats. Identical values can stand only once.
Experiments:
Keap1 Kelch domain = Keap1 Kelch domain (Homo sapiens, UniProt Q14145); test: TR-FRET assay with full-length Keap1, Kelch domain; type: binding
Experimental: (§1) FIG. 5 contains a table showing apparent equilibrium dissociation constants for CS and CS-JQ1 toward Keap1-Kelch and Keap1-BTB domains.
(§2) Chemical synthesis: FITC-Ahx-[…]-CONH2 (FITC-KL9) peptide tracer was custom synthesized by Genscript (Piscataway, New Jersey). CDDO-FITC fluorescent tracer was prepared as previously described. Column purifications were performed on a Biotage Isolera 4 Purification System equipped with a 200-400 nm diode array detector. For normal phase flash purifications, Sorbtech Purity Flash Cartridges were used (CFC-52300-012-18 and CFC-52500-025-12). For reverse phase flash purifications, Biotage Sfar Bio C18 Duo 300 A, 20 μm cartridges were used (FSBD-0411-001). […] LC/MS data analysis was performed using Waters Masslynx V4.1 SCN 846 software. Proton and carbon nuclear magnetic resonance (1H and 13C NMR spectra) were recorded on a Bruker Avance III 400 spectrometer using Topspin 3.2 software and data were analyzed using MestreNova (version 12.0.1-20560, Mestrelab Research). Chemical shifts for protons are reported in parts per million (ppm) and are referenced to residual solvent peaks. Data is reported as follows: chemical shift, multiplicity (s=singlet, br s, =broad singlet, d=doublet, t=triplet, q=quartet, p=pentet, m=multiplet), proton coupling constants (J, Hz), and integration. […]

Keap1 BTB domain = Keap1 BTB domain (Homo sapiens, UniProt Q14145); test: TR-FRET ligand displacement assay with full-length Keap1, BTB domain (CDDO-based tracer); type: binding
Keap1 BTB domain, sequence (Q14145 whole entry, the tested form may be a part): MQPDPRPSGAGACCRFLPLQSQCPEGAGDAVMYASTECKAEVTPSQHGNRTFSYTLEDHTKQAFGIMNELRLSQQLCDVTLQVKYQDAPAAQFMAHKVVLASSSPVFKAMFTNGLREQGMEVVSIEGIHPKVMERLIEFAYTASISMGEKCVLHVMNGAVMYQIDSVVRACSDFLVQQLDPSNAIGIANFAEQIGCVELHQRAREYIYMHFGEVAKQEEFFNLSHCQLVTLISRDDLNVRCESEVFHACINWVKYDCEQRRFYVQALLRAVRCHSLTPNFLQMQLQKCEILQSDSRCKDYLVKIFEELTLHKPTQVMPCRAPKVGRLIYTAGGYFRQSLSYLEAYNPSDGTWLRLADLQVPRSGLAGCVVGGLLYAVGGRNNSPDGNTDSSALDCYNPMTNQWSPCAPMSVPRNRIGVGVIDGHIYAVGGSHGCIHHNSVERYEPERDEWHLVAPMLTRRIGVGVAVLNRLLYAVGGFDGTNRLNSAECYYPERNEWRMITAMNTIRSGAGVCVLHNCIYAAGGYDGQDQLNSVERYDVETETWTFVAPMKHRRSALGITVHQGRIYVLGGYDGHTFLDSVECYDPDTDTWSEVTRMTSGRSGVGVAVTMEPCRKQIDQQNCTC
Experimental: as §1
as §2, with “Research).” for “Research). Chemical shifts for protons are reported in parts per million (ppm) and are referenced to residual solvent peaks. Data is reported as follows: chemical shift, multiplicity (s=singlet, br s, =broad singlet, d=doublet, t=triplet, q=quartet, p=pentet, m=multiplet), proton coupling constants (J, Hz), and integration.”
CS was discovered and validated as a promising new ligand for the redirection of E3 ligase activity. […] Since the binding affinity of CS and CS-JQ1 for BTB was determined in a ligand displacement assay using a CDDO-based tracer, it was reasonable to assume that CDDO-Me would efficiently displace CS-JQ1. […]

MDA = test: Cell viability, breast cancer cells MDA; type: cell-based
MCF-7 = test: Cell viability, breast cancer cells MCF-7; type: cell-based; conditions: Homo sapiens, MCF7
MDA-BR = test: Cell viability, breast cancer cells MDA-BR; type: cell-based
BT474 = test: Cell viability, breast cancer cells BT474; type: cell-based; conditions: Homo sapiens, BT-474
SJGBM2 = test: Cell viability, pediatric glioma SJGBM2; type: cell-based
DIPG XIII [1] = test: Cell viability, pediatric glioma DIPG XIII; type: cell-based
DIPG VI = test: Cell viability, pediatric glioma DIPG VI; type: cell-based
DIPG IV = test: Cell viability, pediatric glioma DIPG IV; type: cell-based
DIPG 50 = test: Cell viability, pediatric glioma DIPG 50; type: cell-based
PHC (mice) = test: Cell viability, pediatric glioma PHC (mice); type: cell-based; conditions: Mus musculus
PKC (mice) = test: Cell viability, pediatric glioma PKC (mice); type: cell-based; conditions: Mus musculus
XFM (mice) = test: Cell viability, pediatric glioma XFM (mice); type: cell-based; conditions: Mus musculus
MES83 [2] = test: Cell viability, adult glioma MES83; type: cell-based
GBM8 = test: Cell viability, adult glioma GBM8; type: cell-based
CT2A (mice) = test: Cell viability, adult glioma CT2A (mice); type: cell-based; conditions: Mus musculus
MES236 = test: Cell viability, adult glioma MES236; type: cell-based
MGG29 = test: Cell viability, adult glioma MGG29; type: cell-based
PN84 = test: Cell viability, adult glioma PN84; type: cell-based
U87 = test: Cell viability, adult glioma U87; type: cell-based; conditions: Homo sapiens, U-87 MG
MGG23 = test: Cell viability, adult glioma MGG23; type: cell-based
MGG6 = test: Cell viability, adult glioma MGG6; type: cell-based
M005 (mice) = test: Cell viability, adult glioma M005 (mice); type: cell-based; conditions: Mus musculus
[3] = cited from earlier work
BRD4 = BRD4 (Homo sapiens, UniProt O60885); test: Rescue of CS-JQ1-induced BRD4 degradation by co-treatment; type: cell-based; conditions: CS-JQ1 250 nM; BTZ, MLN7243, MLN4924 1 μM, JQ1 10 μM; MCF7 and MDA-MB-231 cells
DIPG XIII [4] = test: Cell viability, CS and JQ1 combination, DIPG XIII; type: cell-based
MES83 [5] = test: Cell viability, CS and JQ1 combination, MES83; type: cell-based

Keap1 Kelch domain, sequence (Q14145 whole entry, the tested form may be a part): as above

Row | Compound | IC50 (MDA) [nM] | IC50 (MDA-BR) [nM] | IC50 (BT474) [nM] | IC50 (SJGBM2) [nM] | IC50 (DIPG XIII [1]) | IC50 (DIPG VI) [nM] | IC50 (DIPG IV) [nM] | IC50 (DIPG 50) [nM] | IC50 (PHC (mice)) [nM] | IC50 (PKC (mice)) [nM] | IC50 (XFM (mice)) [nM] | IC50 (MES83 [2]) [nM] | IC50 (MES236) [nM] | IC50 (MGG29) [nM] | IC50 (PN84) [nM] | IC50 (U87) [nM] | IC50 (MGG23) [nM] | IC50 (M005 (mice)) [nM] | Rescue of CS-JQ1-mediated BRD4 degradation by co-treatment (BRD4) | further results
1 | CC1=C(O)C(=O)C=C2C1=CC=C1[C@@]2(C)CC[C@@]2(C)[C@@H]3C[C@](C)(C(=O)O)CC[C@]3(C)CC[C@]12C [Celastrol, (9β,13α,14β,20α)-3-hydroxy-9,13-dimethyl-2-oxo-24,25,26-Trinoroleana-1(10),3,5,7-tetraen-29-oic acid] | 1200 | 1710 | 511 | 1190 | 1910 nM and 1800 nM | 1360 | 2960 | 1600 | 310 | 170 | 276 | 1160 | 1270 | 1100 | 381 | 913 | 1810 | 874 |  | Binding to Keap1 Kelch domain (Keap1 Kelch domain): low micromolar affinity; Affinity for Keap1 BTB domain (Keap1 BTB domain): low micromolar affinity; IC50 (MCF-7): 3320 nM; IC50 (GBM8): 715 nM; IC50 (CT2A (mice)): 605 nM; IC50 (MGG6): 1230 nM; pKa [3]: about 4.8
2 | Cc1sc2c(c1C)C(c1ccc(Cl)cc1)=NC(CC(=O)OC(C)(C)C)c1nnc(C)n1-2 (stereo not drawn) [JQ-1] | 6490 | > 10000 | > 10000 | 1580 | > 10000 nM | > 10000 | 1520 | > 10000 | 900 | 786 | > 10000 | 8120 | 3680 | > 10000 | 604 | 6950 | > 10000 | 751 | reduced CS-JQ1 degradation efficiency | IC50 (DIPG XIII [4]): > 10000 nM; IC50 (MES83 [5]): 6380 nM
3 | NS(=O)(=O)OC[C@@H]1C[C@@H](n2ccc3c(N[C@H]4CCc5ccccc54)ncnc32)C[C@@H]1O [MLN4924] |  |  |  |  |  |  |  |  |  |  |  |  |  |  |  |  |  |  | substantially rescued | 
4 | NS(=O)(=O)OC[C@H]1C[C@@H](Nc2ccnc3cc(-c4cccc(SC(F)(F)F)c4)nn23)[C@H](O)[C@@H]1O [MLN7243] |  |  |  |  |  |  |  |  |  |  |  |  |  |  |  |  |  |  | substantially rescued | 
